The text below walks through data of patent US6716961B2, “Chiral peptide nucleic acids with a N-aminoethyl-d-proline backbone” (ISIS Innovation Limited, priority 2001, dated 2004).

In one series the test system is poly(rI). Nature of the series: Tm (UV melting) control experiment with poly(rI). The class given is binding. To be noted: conditions as FIG. 1; dash with footnote b = no melting above 20° C. was observed. How it is done: (§1) FIG. 1 is a melting point curve for compound (3a) and poly (rA), (sigmoid curve with inflection at 53° C.) poly (rU) (rising straight line plot) and poly (dA) (falling straight line plot) Conditions: 10 mM sodium phosphate buffer pH 7.0; 150 mM NaCl; 1.0 μM (3a); ratio of T:A=1:1, 20% hypochromicity.
(§2) Poly(rA) (Mr˜7×10^6) and poly(rU) (Mr<9×10^5) was obtained from Fluka AG. Poly(dA) (Mr˜9.19×10^5) was obtained from Amersham Pharmacia Biotech. Poly(rI) was obtained from Sigma. The oligonucleotide, (dA)10 and fluorescent labelled (dA)10 was obtained in deprotected and hplc-purified form. All nucleic acids and oligonucleotides were used as received without further treatment.
(§3) The concentration of oligonucleotide, nucleic acid and cPNA solutions was determined from the absorbance at 260 nm (OD260). […]
(§4) Tm experiments were performed on a CARY 100 UV Spectrophotometer (Varian Ltd.) equipped with a thermal melt system. The sample for Tm measurement was prepared by mixing calculated amounts of stock oligonucleotide and cPNA solutions together to give final concentration of nucleotides and sodium phosphate buffer (pH 7.0) and the final volumes were adjusted to 3.0 mL by addition of deionized water. […] The OD260 was recorded in steps from 20-95° C. […] The results were normalized by dividing the absorbance at each temperature by the initial absorbance. […]

The subject of series [1] is poly(dA). Briefly: Circular dichroism spectroscopy of mixture with poly(dA). The class given is binding. To be noted: 10 mM sodium phosphate buffer pH 7.0; same conditions as poly(rA). The method, then:
(§5) FIG. 2A is a CD spectra of mixture of poly(rA) and (3a) at different equivalents of T; inset: plot of ε260 versus equivalents of T; FIG. 2B is a CD spectra of mixture of poly(dA) and (3a) at different equivalents of T. Conditions 10 mM sodium phosphate buffer pH 7.0. The concentration of poly (rA) and poly (dA) was 10 μM based on AMP.
(§6) All CD experiments were performed on a JASCO Model J-710/720 spectropolarimeter (Oxford Centre of Molecular Sciences, Oxford). The samples were prepared by mixing calculated amounts of stock oligonucleotide and cPNA solutions together in a 10 mm quartz cell and the final volumes were adjusted to 2.00 mL by addition of deionized water containing an appropriate amount of sodium phosphate buffer pH 7.0 to give the final AMP concentration of 5 mM and phosphate buffer of 10 mM. The spectra were measured at 20° C. from 300 to 200 nm and averaged 4 times then subtracted from a spectrum of pure water under the same conditions.
(Circular dichroism is widely used to follow secondary structure.)

Series [2] in a line: Solubility in aqueous solvents. The class given is physicochemical.
Series [3] deals with poly(rA). Nature of the series: Tm (UV melting) measurement of hybrid with poly(rA). The class given is binding. The method, then:
as §1, §2, §3, §4

A further series concerns poly(rU). Briefly: Tm (UV melting) control experiment with poly(rU). The class given is binding. To be noted: conditions as FIG. 1; dash with footnote b = no melting above 20° C. was observed. The method, then:
as §1, §2, §3, §4

Series [4] deals with fluorescent labelled (dA)10. Briefly: Gel electrophoresis with fluorescent labelled (dA)10. The class given is binding. To be noted: F(dA)10:cPNA 1:1 to 1:10; 20% polyacrylamide gel, 90 mM TBE. The source says: The gel electrophoresis apparatus used was a SE6000 Vertical Slab Gel Electrophoresis Unit (Hoefer Scientific Instruments). The gel dimensions were 10×9.5×0.075 cm. The DC power sources was an Electrophoresis power supply model EPS-301 (Amersham Pharmacia Biotech). Acrylamide and N,N-methylene bisacrylamide were obtained as a concentrated aqueous stock solution from Fluka AG. Ammonium persulfate (electrophoresis grade) was obtained from Sigma Chemical Co. Tetramethylethylenediamine (TEMED) (electrophoresis grade) and hemicals necessary for preparing buffers were of the highest purity available from BDH. The stock 0.90 M Tris-Borate-EDTA (TBE) buffer pH 8.3 and the loading buffer (30% glycerol, 0.025% bromophenol blue and 0.025% xylene cyanol FF in 90 mM TBE as well as the 20% polyacrylamide gel in 90 mM TBE was prepared according to the literature (see Essential Molecular Biology, A Practical Approach, Vol 1, Oxford, 1991, pp 89-126).
The sample was prepared by mixing calculated amounts of the fluorescent labelled (dA)10 and PNA concentrated stock solutions in an Eppendorf tube to give the final total amounts of AMP ˜1 nmol and the molar ratio of F(dA)10:cPNA=1:1, 1:2, 1:3, 1:5 and 1:10. […]

The test system of series [5] is poly(rA). Briefly: Circular dichroism spectroscopy of mixture with poly(rA). The class given is binding. To be noted: 10 mM sodium phosphate buffer pH 7.0; 200-300 nm. How it is done:
as §5, §6

In series [6] the test system is poly(dA). Nature of the series: Tm (UV melting) measurement of hybrid with poly(dA). The class given is binding. To be noted: conditions as FIG. 1 (10 mM sodium phosphate pH 7.0; 150 mM NaCl; T:A=1:1); dash with footnote b = no melting above 20° C. was observed. The method, then: as §1, §2, §3, §4

As to H-[(ψ-CH2)Gly-D-Pro(T)]10-LysNH2 [(3a)], the “Tm of hybrid with poly(rI)” value in the series with poly(rI) is reported as “no observable melting curve”. Also, the “change in CD signal on addition to poly(dA)” value with poly(dA) [1] is “no significant change”. In addition, in series [2], the “achievable concentration in aqueous solvents” value is reported as “exceeding 5 mg/mL” and the “solubility in aqueous solvents” value is recorded as “freely soluble in aqueous solvents”. The “Tm of hybrid with poly(rA)” value with poly(rA) [3] (10 mM sodium phosphate buffer pH 7.0, 150 mM NaCl, 1.0 μM (3a), T:A=1:1) came out at 53 °C. Also, the “binding to poly(rA) at high salt concentration” value with poly(rA) [3] (1.0 M NaCl) is recorded as “no binding”. Besides, the “Tm of hybrid with poly(rU)” value with poly(rU) is “no observable melting curve”. Besides, the “binding to (dA)10 in gel electrophoresis” value in series [4] is recorded as “lack of binding”. For the same substance, the “change in CD signal on addition to poly(rA)” value in the series on poly(rA) [5] is reported as “strong induced CD signal with a minima at 275 nm”.
As to H-[Gly-o-Pro(cis-τ)]10-LysNH, [(2a)], in the series with poly(dA) [6], the “Tm of hybrid with poly(dA)” value was determined as 70 °C.
Still for that read-out and setting: the result for H-[Acg(T)]10-LysNH3 [(1a)] reads 73 °C.
